Laboratory results taken from PMC11089506 (Journal of Medicinal Chemistry, 2024).
Structures can show the parent of a compound that is named as a salt. Where two headings read alike, the source gives them in different places.

Key:
human 5-HT2CR = human 5-HT2CR (Homo sapiens, UniProt P28335); experiment: Ca2+/Fluo-4 assay, agonist mode, stable 5-HT2CR-HEK293 cells
human 5-HT2AR = human 5-HT2AR (Homo sapiens, UniProt P28223); experiment: Ca2+/Fluo-4 assay, agonist mode, stable 5-HT2AR-HEK293 cells; conditions: for 5-HT2AR Rmax (%): % of the 5-HT Rmax; for 5-HT2AR Rmax ± S.E.M.: % of the 5-HT Rmax on the same 96-well plate
[1] = 5-HT2CR EC50 (nM), Table 1, at least 3 independent experiments
[2] = read-out: 5-HT2AR EC50, Table 1, at least 3 independent experiments
[3] = read-out: 5-HT2CR EC50, Table 1, at least 3 independent experiments
[4] = 5-HT2CR EC50 (nM), Table 2, at least 3 independent experiments
[5] = read-out: 5-HT2AR EC50, Table 2, at least 3 independent experiments

human 5-HT2CR, sequence (P28335 33-458): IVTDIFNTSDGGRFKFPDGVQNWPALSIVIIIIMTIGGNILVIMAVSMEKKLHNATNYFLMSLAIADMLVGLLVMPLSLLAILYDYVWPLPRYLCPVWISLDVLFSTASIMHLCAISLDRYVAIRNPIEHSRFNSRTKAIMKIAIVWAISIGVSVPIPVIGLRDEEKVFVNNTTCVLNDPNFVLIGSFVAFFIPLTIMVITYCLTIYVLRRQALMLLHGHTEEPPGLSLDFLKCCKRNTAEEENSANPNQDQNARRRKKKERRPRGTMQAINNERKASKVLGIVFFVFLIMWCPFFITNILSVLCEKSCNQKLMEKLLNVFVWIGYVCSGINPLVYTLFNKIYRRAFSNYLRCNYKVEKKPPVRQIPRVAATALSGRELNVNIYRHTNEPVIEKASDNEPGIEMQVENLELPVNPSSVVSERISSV
human 5-HT2AR, sequence (P28223 whole entry): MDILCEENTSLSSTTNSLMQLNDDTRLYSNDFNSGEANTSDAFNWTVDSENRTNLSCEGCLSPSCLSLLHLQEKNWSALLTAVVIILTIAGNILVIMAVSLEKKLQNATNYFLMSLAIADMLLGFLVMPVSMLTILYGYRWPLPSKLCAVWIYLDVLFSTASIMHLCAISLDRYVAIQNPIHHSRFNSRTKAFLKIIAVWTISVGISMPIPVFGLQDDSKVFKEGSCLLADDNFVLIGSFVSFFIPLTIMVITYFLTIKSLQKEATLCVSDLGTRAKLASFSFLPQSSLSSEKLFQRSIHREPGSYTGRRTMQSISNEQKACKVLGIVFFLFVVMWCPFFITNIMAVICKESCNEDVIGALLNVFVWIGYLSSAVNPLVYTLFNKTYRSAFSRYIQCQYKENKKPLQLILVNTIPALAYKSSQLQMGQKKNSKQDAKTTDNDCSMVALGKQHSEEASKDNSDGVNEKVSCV

For `COc1cc(C2CCCNC2)c(OC)cc1C.Cl` (centres unmarked) [Compound 12eu, 3-(2,5-Dimethoxy-4-methylphenyl)piperidine Hydrochloride], the EC50 (human 5-HT2CR; [1]) was > 10000 nM, the “5-HT2AR pEC50 ± S.E.M.” value (human 5-HT2AR; Table S2) was 6.98 ± 0.10 and the EC50 (human 5-HT2AR; [2]) was 100 nM.
For `CCc1cc(OC)c(C2CCCNC2)cc1OC.Cl` (centres unmarked) [Compound 13dis, 3-(4-Ethyl-2,5-dimethoxyphenyl)piperidine Hydrochloride], the “5-HT2CR pEC50 ± S.E.M.” value (human 5-HT2CR; Table S2) was 6.19 ± 0.12, the EC50 (human 5-HT2CR; [3]) was 640 nM and the “5-HT2AR pEC50 ± S.E.M.” value (human 5-HT2AR; Table S2) was 6.94 ± 0.09. It also gave an EC50 (human 5-HT2AR; [2]) of 110 nM.
With `CCc1cc(OC)c(C2CCCNC2)cc1OC.Cl` (centres unmarked) [Compound 13eu, 3-(4-Ethyl-2,5-dimethoxyphenyl)piperidine Hydrochloride] the “agonist activity at 5-HT2CR (in words)” value (human 5-HT2CR) was “measurable agonist activity”, the “5-HT2CR pEC50 ± S.E.M.” value (human 5-HT2CR; Table S2) was 6.42 ± 0.12 and the EC50 (human 5-HT2CR; [3]) was 380 nM. The “5-HT2AR pEC50 ± S.E.M.” value (human 5-HT2AR; Table S2) was 7.39 ± 0.11 and the EC50 (human 5-HT2AR; [2]) was 41 nM.
With `CCCCc1cc(OC)c(C2CCCNC2)cc1OC.Cl` (centres unmarked) [Compound 14dis, 3-(4-Butyl-2,5-dimethoxyphenyl)piperidine Hydrochloride] the “5-HT2CR pEC50 ± S.E.M.” value (human 5-HT2CR; Table S2) was 5.80 ± 0.07, the EC50 (human 5-HT2CR; [3]) was 1600 nM and the “5-HT2AR pEC50 ± S.E.M.” value (human 5-HT2AR; Table S2) was 6.46 ± 0.05. For the same compound, the EC50 (human 5-HT2AR; [2]) was 340 nM.
For `CCCCc1cc(OC)c(C2CCCNC2)cc1OC.Cl` (centres unmarked) [Compound 14eu, 3-(4-Butyl-2,5-dimethoxyphenyl)piperidine Hydrochloride], the EC50 (human 5-HT2CR; [1]) was > 10000 nM, the “5-HT2AR pEC50 ± S.E.M.” value (human 5-HT2AR; Table S2) was 6.57 ± 0.06 and the EC50 (human 5-HT2AR; [2]) was 270 nM.
In the case of `COc1cc(C2CCCNC2)c(OC)cc1SC.Cl` (centres unmarked) [Compound 15dis, 3-(2,5-Dimethoxy-4-(methylthio)phenyl)piperidine Hydrochloride], the “5-HT2CR pEC50 ± S.E.M.” value (human 5-HT2CR; Table S2) is reported as 5.63 ± 0.03, the EC50 (human 5-HT2CR; [3]) is reported as 2300 nM and the “5-HT2AR pEC50 ± S.E.M.” value (human 5-HT2AR; Table S2) is reported as 6.75 ± 0.06. It also gave an EC50 (human 5-HT2AR; [2]) of 180 nM.
In the case of `COc1cc(C2CCCNC2)c(OC)cc1SC.Cl` (centres unmarked) [Compound 15eu, 3-(2,5-Dimethoxy-4-(methylthio)phenyl)piperidine Hydrochloride], the “5-HT2CR pEC50 ± S.E.M.” value (human 5-HT2CR; Table S2) is reported as 6.29 ± 0.06, the EC50 (human 5-HT2CR; [3]) is reported as 510 nM and the “5-HT2AR pEC50 ± S.E.M.” value (human 5-HT2AR; Table S2) is reported as 7.59 ± 0.11. It also gave an EC50 (human 5-HT2AR; [2]) of 26 nM.
`CCSc1cc(OC)c(C2CCCNC2)cc1OC.Cl` (centres unmarked) [Compound 16dis, 3-(2,5-Dimethoxy-4-(ethylthio)phenyl)piperidine Hydrochloride] was tested, and the “5-HT2CR pEC50 ± S.E.M.” value (human 5-HT2CR; Table S2) was 6.11 ± 0.08, the EC50 (human 5-HT2CR; [3]) was 780 nM and the “5-HT2AR pEC50 ± S.E.M.” value (human 5-HT2AR; Table S2) was 6.73 ± 0.10. The EC50 (human 5-HT2AR; [2]) was 190 nM.
With `CCSc1cc(OC)c(C2CCCNC2)cc1OC.Cl` (centres unmarked) [Compound 16eu, 3-(2,5-Dimethoxy-4-(ethylthio)phenyl)piperidine Hydrochloride] the “5-HT2CR pEC50 ± S.E.M.” value (human 5-HT2CR; Table S2) was 6.25 ± 0.08, the EC50 (human 5-HT2CR; [3]) was 570 nM and the “5-HT2AR pEC50 ± S.E.M.” value (human 5-HT2AR; Table S2) was 7.42 ± 0.09. The EC50 (human 5-HT2AR; [2]) was 38 nM.
In the case of `COc1cc(C2CCCNC2)c(OC)cc1SC(C)C` (centres unmarked) [Compound 17dis, 3-(4-(Isopropylthio)-2,5-dimethoxyphenyl)piperidine], the “5-HT2CR pEC50 ± S.E.M.” value (human 5-HT2CR; Table S2) is reported as 5.64 ± 0.05, the EC50 (human 5-HT2CR; [3]) is reported as 2300 nM and the “5-HT2AR pEC50 ± S.E.M.” value (human 5-HT2AR; Table S2) is reported as 6.54 ± 0.09. It also gave an EC50 (human 5-HT2AR; [2]) of 290 nM.
In the case of `COc1cc(C2CCCNC2)c(OC)cc1SC(C)C` (centres unmarked) [Compound 17eu, 3-(4-(Isopropylthio)-2,5-dimethoxyphenyl)piperidine], the EC50 (human 5-HT2CR; [1]) is reported as > 10000 nM, the “5-HT2AR pEC50 ± S.E.M.” value (human 5-HT2AR; Table S2) is reported as 6.81 ± 0.09 and the EC50 (human 5-HT2AR; [2]) is reported as 160 nM.
For `COc1cc(C(F)(F)F)c(OC)cc1CCN` [Compound 18, 2-(2,5-Dimethoxy-4-(trifluoromethyl)phenyl)ethan-1-amine Hydrochloride, reference compound], the EC50 (human 5-HT2CR; 5-HT2CR pEC50 ± S.E.M., Table S2) was 7.59 nM, the “5-HT2CR Rmax (%)” value (human 5-HT2CR; Table 2, % of the 5-HT Rmax) was 71% and the “5-HT2CR Rmax ± S.E.M.” value (human 5-HT2CR; Table S2, % of the 5-HT Rmax on the same 96-well plate) was 71 ± 2%. For the same compound, the EC50 (human 5-HT2AR; 5-HT2AR pEC50 ± S.E.M., Table S2) was 0.724 nM, the “fold higher agonist potency at 5-HT2AR than at 5-HT2CR (selectivity)” value (human 5-HT2AR; 5-HT2AR vs 5-HT2CR) was 10 fold and the “5-HT2AR Rmax (%)” value (human 5-HT2AR; Table 2) was 67%. For the same compound, the “5-HT2AR Rmax ± S.E.M.” value (human 5-HT2AR; Table S2) was 67 ± 5%.
For `Cl.FC(F)(F)c1ccc(C2CCCNC2)cc1` (centres unmarked) [Compound 21, 3-(4-(Trifluoromethyl)phenyl)piperidine Hydrochloride], the “agonist activity at 5-HT2CR (in words)” value (human 5-HT2CR) was “negligible agonist activity”, the EC50 (human 5-HT2CR; [4]) was > 10000 nM and the “agonist activity at 5-HT2AR (in words)” value (human 5-HT2AR) was “negligible agonist activity”. The EC50 (human 5-HT2AR; 5-HT2AR EC50 (nM), Table 2, at least 3 independent experiments) was > 10000 nM.
In the case of `COc1cc(C(F)(F)F)ccc1C1CCCNC1.Cl` (centres unmarked) [Compound 22dis, 3-(2-Methoxy-4-(trifluoromethyl)phenyl)piperidine Hydrochloride], the “5-HT2CR pEC50 ± S.E.M.” value (human 5-HT2CR; Table S2) is reported as 5.85 ± 0.05, the EC50 (human 5-HT2CR; read-out: 5-HT2CR EC50, Table 2, at least 3 independent experiments) is reported as 1400 nM and the “5-HT2AR Rmax (%)” value (human 5-HT2AR; Table 2) is reported as 80%. For the same compound, the “5-HT2AR pEC50 ± S.E.M.” value (human 5-HT2AR; Table S2) was 6.18 ± 0.07, the “5-HT2AR Rmax ± S.E.M.” value (human 5-HT2AR; Table S2) was 80 ± 5% and the EC50 (human 5-HT2AR; [5]) was 660 nM.
`COc1cc(C(F)(F)F)ccc1C1CCCNC1.Cl` (centres unmarked) [Compound 22eu, 3-(2-Methoxy-4-(trifluoromethyl)phenyl)piperidine Hydrochloride] was tested, and the EC50 (human 5-HT2CR; [4]) was > 10000 nM, the “5-HT2AR Rmax (%)” value (human 5-HT2AR; Table 2) was 68% and the “5-HT2AR pEC50 ± S.E.M.” value (human 5-HT2AR; Table S2) was 7.16 ± 0.05. The “5-HT2AR Rmax ± S.E.M.” value (human 5-HT2AR; Table S2) was 68 ± 2% and the EC50 (human 5-HT2AR; [5]) was 69 nM.
For `COc1cc(C2CCCNC2)ccc1C(F)(F)F.Cl` (centres unmarked) [Compound 23, 3-(3-Methoxy-4-(trifluoromethyl)phenyl)piperidine Hydrochloride], the “fold drop in agonist potency (fold higher EC50) at 5-HT2AR” value (human 5-HT2AR; relative to (S)-11) was “more than 500 fold”.
